In patent publication US20230149146A1, “AN AUTOMATED CONTROLLED RELEASE DEVICE FOR LIVESTOCK MANAGEMENT AND METHODS OF USE THEREOF” (CORNELL UNIVERSITY, priority 2020, published 2023):
Entries after “also recorded” stand apart in the source; their conditions may differ. Marks after values point to notes of the source that are not given here. Where no end group is shown, it is not given here.

How the values were obtained:
lactating Holstein cows [1] = test: Luteal regression and plasma P4 after IVG (catheter) or im PGF, first study and follow-up; type: in vivo, cow
Procedure: Catheters were employed to deliver IVG hormones in lactating Holstein cows. […] In a first study, regression of the corpus luteum (“CL regression”) and plasma P4 concentrations after IVG delivery of 25, 50, or 125 mg PGF (Dinoprost) or of saline 7.5 days after induction of ovulation by Ovsynch injections was evaluated. A positive control group received 25 mg of PGF im (i.e., by intramuscular injection), enabling a comparison of outcomes with im PGF to those with IVG PGF.

cows = test: Larger experiment: physiological outcomes for cows treated with PGF im or IVG; type: in vivo, cow
Description: The PGF experiments' ability to show equal luteal regression with im and IVG administration was limited by small N. Data from a larger, more recent experiment supports non-inferiority for IVG compared to im delivery of PGF to induce luteal regression. […] [table]

lactating Holstein cows [2] = test: Proof-of-concept: luteal regression by IVG PGF from single-chamber prototype device; type: in vivo, cow; conditions: two 50-mg doses of PGF 12 hours apart via prototype (e-Synch PGF); FIG. 13
Procedure: Lactating Holstein cows were randomized to receive two 50-mg doses of PGF 12 hours apart, or an equal amount of saline solution (negative control), or two 25-mg doses of PGF IVG (IVG positive control), or a single 25-mg dose of PGF im (im positive control). There were four cows in each group (except for saline, two cows). […] In short, administration worked as well as standard injections.

lactating Holstein cows [3] = test: In-vivo validation of automated IVG device: circulating P4 after PGF2α; parameters: species or system cow
Description: The objective was to develop and validate an electronically-controlled hormone delivery device for reproductive control of cattle. […] The IVG device comprises an outer 3D-printed plastic housing, fluid reservoirs connected to delivery pumps and tubing, a programmable circuit board, and a retention mechanism. For in-vitro testing, 4 pumps were programmed to release different target volumes (0.1, 0.2, 0.5, 1.0, and 2.0 g) in 4 replicates (n=80). A Bland-Altman plot was constructed to assess the magnitude of disagreement between expected and delivered volumes. Observations fell within acceptable limits of agreement (1.96 SD) >95% of the time, indicating overall good agreement (mean difference=−0.005 g). To assess in-vivo performance of the IVG device, lactating Holstein cows with at least 1 corpus luteum ≥15 mm in diameter were randomly allocated to 1 of 3 treatments: IM-PGF (n=6); two 25 mg intramuscular doses of PGF (Dinoprost) 24 h apart, DEV-PGF (n=6); four 25 mg doses of PGF released automatically by the IVG device every 12 h, and DEV-CTL (n=4); insertion of an empty IVG device (placebo control). Blood samples were collected at 0, 12, 24, 36, 48, and 72 h after treatment. Data was analyzed by ANOVA with repeated measures in SAS. All devices (12/12) remained in situ until removed at 48-h. Progesterone (P4) concentrations from 0 to 72 h were affected by treatment, time, and their interaction.
To assess IVG device performance in vivo, lactating nonpregnant primiparous and multiparous Holstein cows from the dairy unit of the Cornell University Ruminant Center (Harford, N.Y.) were enrolled in an experiment. Cows were housed in freestall barns with concrete flooring, self-locking head gates, and fans and sprinklers in the feedline. Cows were milked thrice daily at approximately 8-h intervals and were fed a TMR once a day with ad libitum access to feed and water.
All cows enrolled received a GnRH treatment (200 μg of gonadorelin acetate given intramuscular, Gonabreed, Parnell Pharmaceuticals, Overland Park, Kans., USA) at 40±3 DIM. Seven days later, transrectal ultrasonography (TUS) of the ovaries was performed using a 7.5-MHz linear probe (Ibex Pro; E. I. Medical Imagining, Loveland, Colo.). Cows with […] corpus luteum (CL) ≥15 mm in diameter (n=16) were randomly allocated to 1 of 3 treatments: IM-PGF (n=6), DEV-PGF (n=6), and DEV-CTRL (n=4). Cows in IM-PGF received 2 treatments of 25 mg of PGF2α (12.5 mg/mL of dinoprost tromethamine; Lutalyse HighCon, Zoetis, New York, N.Y.) 24 h apart as a 2 mL injection in the semimembranosus or semitendinosus muscle. Cows in DEV-PGF received 1 IVG device programmed to automatically release 4 doses of 25 mg of PGF2α at ˜12 h intervals (first dose released at time 0). Cows in the DEV-CTRL treatment received an IVG device without PGF2α to serve as a placebo control for the presence of the device in the vagina. All devices were removed at 48 h after insertion.
Blood samples (˜8 to 9 mL) were collected at time 0 and at 12, 24, 36, 48, and 72 h after treatment by puncture of caudal blood vessels using heparinized evacuated tubes (Vacutainer; BD, Franklin Lakes, N.J.). Samples were centrifuged at 2,000×g for 20 min at 4° C. Plasma aliquots were harvested and stored at −20° C. until assayed for progesterone (P4) in duplicate in 3 RIA assays performed as described in Beam, S. W., et al., “Energy balance and ovarian follicle development prior to the first ovulation postpartum in dairy cows receiving three levels of dietary fat.” Biol. Reprod. 56:133-142 (1997), the disclosure of which is incorporated herein by reference in its entirety. The average intra-assay coefficient of variation (CV) was 13.2% whereas the interassay CV was 17.0%. […]

lactating Holstein cows [4] = test: Luteal regression and plasma P4 after IVG (catheter) or im PGF, first study and follow-up; type: in vivo, cow; conditions: for CLR % (complete luteal regression, P4 < 1 ng/mL) / P4 (ng/mL): PGF25-2X-IVG: two IVG boluses 25 mg PGF 12 h apart
lactating Holstein cows [5] = test: LH response after IVG delivery of GnRH; type: in vivo, cow; conditions: citric acid as absorption enhancer
Procedure: LH response of lactating Holstein cows after IVG delivery of GnRH was evaluated. Cows received IVG GnRH (Gonadorelin) at a standard dose of 100 μg, or at doses of 500 or 1,000 μg without and with citric acid as an absorption enhancer. A positive control group received 100 μg GnRH im and a negative control group received saline IVG.

[6] = PGF25-IM: single im bolus 25 mg PGF, 60 h after treatment
[7] = PGF25-IM: single im bolus 25 mg PGF, 72 h after treatment
[8] = PGF25-IVG: single IVG bolus 25 mg PGF, 60 h after treatment
[9] = PGF25-IVG: single IVG bolus 25 mg PGF, 72 h after treatment
[10] = IVG: two 25 mg doses of PGF 12 h apart

CCCCC[C@H](O)/C=C/[C@@H]1[C@@H](C/C=C\CCCC(=O)O)[C@@H](O)C[C@H]1O [PGF, prostaglandin F2α]
CLR % (complete luteal regression, P4 < 1 ng/mL) (lactating Holstein cows [1]; [6]): 86^b % | P4 (ng/mL) (lactating Holstein cows [1]; [6]): 0.67 ± 0.23^bc ng/mL | CLR % (complete luteal regression, P4 < 1 ng/mL) (lactating Holstein cows [1]; [7]): 86^b % | P4 (ng/mL) (lactating Holstein cows [1]; [7]): 0.57 ± 0.24^c ng/mL | CLR % (complete luteal regression, P4 < 1 ng/mL) (lactating Holstein cows [1]; [8]): 42^b % | P4 (ng/mL) (lactating Holstein cows [1]; [8]): 1.74 ± 0.50^b ng/mL | CLR % (complete luteal regression, P4 < 1 ng/mL) (lactating Holstein cows [1]; [9]): 42^b % | P4 (ng/mL) (lactating Holstein cows [1]; [9]): 2.24 ± 0.64^b ng/mL | Estrus after PGF, % (increased physical activity within 72 h of treatment) (cows; IM: 25 mg of PGF im): 47.0% | Ovulation, % (in response to GnRH given within 72 h of PGF treatment) (cows; IM: 25 mg of PGF im): 88.0% | P4 (ng/mL) at 48 h (cows; IM: 25 mg of PGF im): 0.4 ± 0.1 ng/mL | P4 (ng/mL) at 72 h (cows; IM: 25 mg of PGF im): 0.4 ± 0.1 ng/mL | CL regression, % (P4 from >1 ng/mL at treatment to <0.5 ng/mL 72 h after) (cows; IM: 25 mg of PGF im (Dinoprost), n = 169): 81.1% | Estrus after PGF, % (increased physical activity within 72 h of treatment) (cows; [10]): 51.1% | Ovulation, % (in response to GnRH given within 72 h of PGF treatment) (cows; [10]): 84.1% | P4 (ng/mL) at 48 h (cows; [10]): 0.5 ± 0.1 ng/mL | P4 (ng/mL) at 72 h (cows; [10]): 0.6 ± 0.1 ng/mL | CL regression, % (P4 from >1 ng/mL at treatment to <0.5 ng/mL 72 h after) (cows; IVG: two 25 mg doses of PGF 12 h apart (Dinoprost), n = 179): 81.0% | pattern of P4 decline (lactating Holstein cows [2]): consistent with CL regression and similar to that of cows in the positive control groups | P4, one cow (lactating Holstein cows [3]; DEV-PGF (four 25 mg doses by IVG device every 12 h), 36 h after treatment): 1.20 ng/mL | P4 concentrations compared with placebo device control (lactating Holstein cows [3]; DEV-PGF and IM-PGF vs DEV-CTRL, from 24 to 72 h): lesser P4 than cows in DEV-CTL; also recorded: lesser concentrations of P4 than cows in the DEV-CTRL treatment | P4, all other cows (lactating Holstein cows [3]; DEV-PGF and IM-PGF, 36 h after treatment): < 1 ng/mL | P4, all other cows, end of the sampling period (lactating Holstein cows [3]; DEV-PGF and IM-PGF, 72 h): < 0.5 ng/mL | luteal regression by PGF delivered automatically by the device (lactating Holstein cows [3]; DEV-PGF, lactating dairy cows): successful induction of luteal regression; also recorded: complete luteal regression | P4, one cow (lactating Holstein cows [3]; IM-PGF (two 25 mg im doses 24 h apart), 36 h after treatment): 1.21 ng/mL | P4, one cow, end of the sampling period (lactating Holstein cows [3]; IM-PGF, 72 h): 0.50 ng/mL | P4 concentrations, DEV-PGF compared with IM-PGF (lactating Holstein cows [3]; entire sampling period, 0 to 72 h): did not differ | CLR % (complete luteal regression, P4 < 1 ng/mL) (lactating Holstein cows [4]; 60 h after treatment): 100^b % | P4 (ng/mL) (lactating Holstein cows [4]; 60 h after treatment): 0.19 ± 0.04^c ng/mL | CLR % (complete luteal regression, P4 < 1 ng/mL) (lactating Holstein cows [4]; 72 h after treatment): 100^b % | P4 (ng/mL) (lactating Holstein cows [4]; 72 h after treatment): 0.21 ± 0.07^c ng/mL | CL regression, single bolus of IVG PGF compared with im PGF (lactating Holstein cows [4]; single IVG bolus (25, 50 or 125 mg) vs 25 mg im): less effectual than im PGF | cows that experienced complete CL regression (lactating Holstein cows [4]; two 25 mg boluses of IVG PGF 12 hours apart, follow-up experiment): 100% | blood/plasma progesterone after treatment compared with im PGF (lactating Holstein cows [4]; two IVG boluses 25 mg PGF 12 h apart (PGF25-2X-IVG) vs PGF25-IM, FIG. 10): indistinguishable from a single dose intramuscular injection of PGF | luteolytic response compared with single im injection (lactating Holstein cows [4]; two IVG boluses of PGF 12 hours apart, summary of the PGF experiments): comparable luteolytic response to a single intramuscular injection of PGF

gonadotropin releasing hormone (QHWSYGLRPG; ends and bridges not checked; UniProt P01148 24-33, looked up) [GnRH, releasing hormone that triggers LH release]
effect of adding 10% citric acid to the GnRH mixture (lactating Holstein cows [5]): necessary for efficacy of IVG GnRH
